The test system of assay [1] is A549. In words: A549 wound healing inhibition (HGF dependent migration). It counts as cell-based. The conditions noted are these: Homo sapiens, A549 cells, read-out: A549 WOUND HEALING INHIB IC50. The source says: (§1) HGF has well known activity in terms of inducing scattering and migration (wound healing) (Wells et al., Cell Motil Cytoskeleton. 2005 November 62(3):180-94; Miura et al., Urology 2001 December 58(6):1064-9; Nishimura et al., Int J Urol. 1998 May 5(3):276-81; Wang et al., Mol Cancer Ther. 2003 November; 2(11):1085-92; and Christensen et al., Cancer Res. 2003 Nov. 1; 63(21):7345-55).

For assay [2], the system named is DU145. In words: DU145 scattering inhibition (HGF dependent scattering). It counts as cell-based. The conditions noted are these: Homo sapiens, DU-145; HGF dependent scattering, DU145 cells; read-out: DU145 SCATTERING INHIB IC50.
Text: as §1

Assay [3] has as its target T1, VEGF receptor KDR (Homo sapiens, UniProt P35968).
T1 construct: made in house; host or cells: Sf9 cells (Spodoptera frugiperda), baculovirus
In words: In vitro receptor tyrosine kinase assay (DELFIA), VEGF receptor KDR. The conditions noted are these: read-out: VEGFR IC50. It counts as biochemical.

The target of assay [4] is T2, recombinant human c-Met/HGF receptor (Homo sapiens, UniProt P08581).
T2 construct: His tag (pBlueBacHis2A vector); made in house; host or cells: Hi-5 cells (Trichoplusia ni), baculovirus
In words: In vitro receptor tyrosine kinase assay (DELFIA), c-Met/HGF receptor. It counts as biochemical. To be noted: read-out: CMET IC50. The method, then:
Cell pellets were frozen at −80° C. until purification was performed.
The coated plates were washed and stored at 4° C. […] After incubation, the kinase reactions were quenched with EDTA and the plates were washed.

pIC50: −log10 of the molar value.

The source of these data is patent publication US8329726B2, “Inhibitors of VEGF receptor and HGF receptor signaling” (MethylGene Inc., priority 2005, dated 2012).

T1 sequence (P35968 806-1356): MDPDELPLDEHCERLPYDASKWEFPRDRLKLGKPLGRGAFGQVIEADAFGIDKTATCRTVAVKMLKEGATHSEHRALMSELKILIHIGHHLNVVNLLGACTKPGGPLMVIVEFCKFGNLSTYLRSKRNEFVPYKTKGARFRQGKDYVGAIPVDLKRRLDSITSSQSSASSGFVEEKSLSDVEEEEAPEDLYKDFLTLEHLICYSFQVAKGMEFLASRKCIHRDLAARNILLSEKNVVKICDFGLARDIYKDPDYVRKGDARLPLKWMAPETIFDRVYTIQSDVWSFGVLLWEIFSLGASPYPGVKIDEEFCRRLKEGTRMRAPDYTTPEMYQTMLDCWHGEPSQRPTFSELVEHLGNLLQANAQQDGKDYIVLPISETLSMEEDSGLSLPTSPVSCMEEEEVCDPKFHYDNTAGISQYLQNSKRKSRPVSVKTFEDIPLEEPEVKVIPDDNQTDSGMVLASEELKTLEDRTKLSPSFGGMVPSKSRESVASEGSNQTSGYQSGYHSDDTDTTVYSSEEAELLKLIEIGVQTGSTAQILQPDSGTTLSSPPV
T2 sequence (P08581 1078-1337): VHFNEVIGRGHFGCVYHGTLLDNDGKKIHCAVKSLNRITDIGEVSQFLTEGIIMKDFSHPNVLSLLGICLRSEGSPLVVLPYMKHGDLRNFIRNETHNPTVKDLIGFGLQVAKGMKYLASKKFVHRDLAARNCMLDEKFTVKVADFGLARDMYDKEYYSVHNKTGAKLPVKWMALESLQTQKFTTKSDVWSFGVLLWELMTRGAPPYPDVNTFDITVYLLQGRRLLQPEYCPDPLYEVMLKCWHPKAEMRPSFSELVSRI

With `CNC(=O)N1CCN(Cc2ccc(-c3cc4nccc(Oc5ccc(NC(=O)N6CCN(c7ccccc7)C6=O)cc5F)c4s3)cc2)CC1`, the negative logarithm of the IC50 (pIC50) (commonly −log10 of the IC50, conventionally taken in molar units) in assay [1] is above 6.00; in assay [2] it was above 6.00; in assay [3], above 7.30; in assay [4], above 7.30.
As for `COc1ccccc1NC(=O)CC(=O)Nc1ccc(Oc2ccnc3cc(-c4cnc(N5CCOCC5)nc4)sc23)c(F)c1`, the pIC50 was below 5.00 in assay [1], below 5.00 in assay [2], below 6.30 in assay [3] and below 6.30 in assay [4].
Turning to `COCCNCc1ccc(-c2cc3nccc(Oc4ccc(NC(=O)N5CCN(c6ccc(F)cc6)C5=O)cc4F)c3s2)cc1`, the pIC50 in assay [1] is above 6.00; in assay [2] it was above 6.00; in assay [3] it was above 7.30; in assay [4], above 7.30.
For `CN1CCN(Cc2ccc(-c3cc4nccc(Oc5ccc(NC(=O)CC(=O)N(C)c6ccccc6)cc5F)c4s3)cc2)CC1`, the pIC50 is 5.30 to 6.00 in assay [1], above 6.00 in assay [2], above 7.30 in assay [3] and 6.60 to 7.30 in assay [4].
For `COc1ccccc1NC(=O)CC(=O)Nc1ccc(Oc2ccnc3cc(-c4nccn4C)sc23)c(F)c1` [drawing 284], in that order: above 6.00, 5.30 to 6.00, above 7.30 and above 7.30.
The like results for `CCCn1cnc(-c2cc3nccc(Oc4ccc(NC(=O)CC(=O)Nc5ccccc5OC)cc4F)c3s2)c1` were, in that order, 5.30 to 6.00, above 6.00, above 7.30 and above 7.30.
The like results for `CCCn1cnc(-c2cc3nccc(Oc4ccc(NC(=O)CC(=O)Nc5ccc(F)cc5)cc4F)c3s2)c1` were, in that order, above 6.00, above 6.00, above 7.30 and above 7.30.
With `O=C(CC(=O)Nc1ccc(Oc2ccnc3cc(-c4cccc[n+]4[O-])sc23)c(F)c1)Nc1ccccc1`, the pIC50 is above 6.00 in assay [1], above 6.00 in assay [2], above 7.30 in assay [3] and above 7.30 in assay [4].
With `O=C(O)Cn1cnc(-c2cc3nccc(Oc4ccc(NC(=O)CC(=O)Nc5ccccc5)cc4F)c3s2)c1`, the pIC50 in assay [1] is below 5.00; in assay [2], below 5.00; in assay [3], above 7.30; in assay [4], above 7.30.
Turning to `CCn1cnc(-c2cc3nccc(Oc4ccc(NC(=O)CC(=O)NC5CCCCC5)cc4F)c3s2)c1`, the pIC50 is above 6.00 in assay [1], above 6.00 in assay [2], above 7.30 in assay [3] and 6.60 to 7.30 in assay [4].
Regarding `CCn1cc(-c2cc3nccc(Oc4ccc(NC(=O)CC(=O)Nc5ccccc5OC)cc4F)c3s2)nc1CN(C)C`, the negative-log IC50 (pIC50) in assay [1] was above 6.00; in assay [2], above 6.00; in assay [3], above 7.30; in assay [4], above 7.30.
Regarding `CN1CCN(Cc2ccc(-c3cc4nccc(Oc5ccc(NC(=O)C6CCN(c7ccccc7)C6=O)cc5F)c4s3)cc2)CC1` (stereo not drawn), the pIC50 in assay [1] was 5.30 to 6.00; in assay [2], 5.30 to 6.00; in assay [3] it was above 7.30; in assay [4], 6.60 to 7.30.
`Cn1cnc(-c2cc3nccc(Oc4ccc(NC(=O)C5CCN(c6ccc(F)cc6)C5=O)cc4F)c3s2)c1` (stereo not drawn): the negative-log IC50 (pIC50) in assay [1] was above 6.00; in assay [2], above 6.00; in assay [3], above 7.30; in assay [4] it was above 7.30.
With `O=C(Nc1ccc(Oc2ccnc3cc(-c4cn(CCN5CCCC5)cn4)sc23)c(F)c1)C1(C(=O)Nc2ccccc2F)CC1`, the negative-log IC50 (pIC50) in assay [1] was 5.30 to 6.00; in assay [2], above 6.00; in assay [3], above 7.30; in assay [4], above 7.30.
For the compound `COc1ccccc1NC(=O)CC(=O)Nc1ccc(Oc2ccnc3cc(C(=O)NN(C)C)sc23)c(F)c1`, the pIC50 in assay [1] is 5.30 to 6.00; in assay [2] it was 5.30 to 6.00; in assay [3] it was below 6.30; in assay [4], 6.30 to 6.60.
On to `O=C(CC(=O)Nc1ccccc1F)Nc1ccc(Oc2ccnc3cc(-c4cccc(CN5CCOCC5)c4)sc23)c(F)c1`, for which the pIC50 is 5.30 to 6.00 in assay [1], 5.30 to 6.00 in assay [2], 6.60 to 7.30 in assay [3] and above 7.30 in assay [4].
As for `COc1ccccc1NC(=O)CC(=O)Nc1ccc(Oc2ccnc3cc(-c4cccc(CN5CCOCC5)c4)sc23)c(F)c1`, the pIC50 in assay [1] was below 5.00; in assay [2] it was 5.30 to 6.00; in assay [3], 6.60 to 7.30; in assay [4] it was 6.60 to 7.30.
With `CN(C)[C@@H]1CCN(C(=O)c2cc3nccc(Oc4ccc(NC(=O)CC(=O)Nc5ccccc5)cc4F)c3s2)C1` [drawing 294], the pIC50 in assay [1] is above 6.00; in assay [2] it was 5.30 to 6.00; in assay [3], 6.60 to 7.30; in assay [4], 6.60 to 7.30.
In the case of `CN(C(=O)CC(=O)Nc1ccc(Oc2ccnc3cc(-c4cn(C)cn4)sc23)c(F)c1)c1ccccc1F`, the pIC50 in assay [1] is above 6.00; in assay [2], 5.30 to 6.00; in assay [3], above 7.30; in assay [4] it was 6.60 to 7.30.
The like results for `CN(C)CCn1cnc(-c2cc3nccc(Oc4ccc(NC(=O)C5(C(=O)Nc6ccccc6)CC5)cc4F)c3s2)c1` were, in that order, above 6.00, above 6.00, above 7.30 and above 7.30.
The like results for `CN(C)CCCn1cnc(-c2cc3nccc(Oc4ccc(NC(=O)CC(=O)N(C)c5ccccc5)cc4F)c3s2)c1` were, in that order, above 6.00, above 6.00, above 7.30 and above 7.30.
For `Cn1ccnc1-c1cc2nccc(Oc3ccc(NC(=O)CC(=O)NC4CCNCC4)cc3F)c2s1`, in that order: below 5.00, below 5.00, below 6.30 and below 6.30.
With `O=C(CC(=O)Nc1ccccc1F)Nc1ccc(Oc2ccnc3cc(C#CCN4CCOCC4)sc23)c(F)c1`, the pIC50 was 5.30 to 6.00 in assay [1], below 5.00 in assay [2], 6.30 to 6.60 in assay [3] and 6.60 to 7.30 in assay [4].
The like results for `O=C(Nc1ccc(Oc2ccnc3cc(-c4cn(CCN5CCCC5)cn4)sc23)c(F)c1)N1CCN(c2ccccc2)C1=O` were, in that order, above 6.00, above 6.00, above 7.30 and above 7.30.
For `CN1CCN(CCN(C)Cc2ccc(-c3cc4nccc(Oc5ccc(NC(=O)CC(=O)N(C)c6ccc(F)cc6)cc5F)c4s3)cc2)CC1`, in that order: 5.30 to 6.00, above 6.00, above 7.30 and above 7.30.
For `CN(C)NC(=O)c1cc2nccc(Oc3ccc(NC(=O)CC(=O)N(C)c4ccccc4)cc3F)c2s1`, in that order: below 5.00, below 5.00, below 6.30 and 6.30 to 6.60.
Regarding `Cn1cncc1-c1cc2nccc(Oc3ccc(NC(=O)CC(=O)Nc4cccnc4)cc3F)c2s1` [drawing 290], the pIC50 was 5.30 to 6.00 in assay [1], 5.30 to 6.00 in assay [2], above 7.30 in assay [3] and 6.60 to 7.30 in assay [4].
As to `CN1CCN(C(=O)CC(=O)Nc2ccc(Oc3ccnc4cc(-c5cn(C)cn5)sc34)c(F)c2)c2ccccc21`, the pIC50 in assay [1] was 5.30 to 6.00; in assay [2], 5.30 to 6.00; in assay [3], above 7.30; in assay [4] it was above 7.30.
As for `CCn1cncc1-c1cc2nccc(Oc3ccc(NC(=O)CC(=O)Nc4ccccc4OC)cc3F)c2s1`, the pIC50 in assay [1] is 5.30 to 6.00; in assay [2], above 6.00; in assay [3], 6.60 to 7.30; in assay [4] it was 6.60 to 7.30.
Take `Cn1cnc(-c2cc3nccc(Oc4ccc(NC(=O)C5(C)CCN(c6ccccc6)C5=O)cc4F)c3s2)c1` (stereo not drawn): the pIC50 was 5.30 to 6.00 in assay [1], 5.30 to 6.00 in assay [2], 6.30 to 6.60 in assay [3] and 6.60 to 7.30 in assay [4].
Take `CCn1cnc(-c2cc3nccc(Oc4ccc(NC(=O)CC(=O)N5CCOc6ccccc65)cc4F)c3s2)c1`: the pIC50 is above 6.00 in assay [1], above 6.00 in assay [2], above 7.30 in assay [3] and above 7.30 in assay [4].
Consider `CN(C)CCn1cnc(-c2cc3nccc(Oc4ccc(NC(=O)N5CCN(c6ccc(F)cc6)C5=O)cc4F)c3s2)c1`, for which the negative logarithm of the IC50 (pIC50) in assay [1] is above 6.00; in assay [2], above 6.00; in assay [3] it was above 7.30; in assay [4], above 7.30.
Regarding `Cn1cnc(-c2cc3nccc(Oc4ccc(NC(CC(=O)Nc5ccc(F)cc5)C(F)(F)F)cc4F)c3s2)c1` (stereo not drawn), the pIC50 is above 6.00 in assay [1], above 6.00 in assay [2], above 7.30 in assay [3] and 6.60 to 7.30 in assay [4].
`COc1ccc(NC(=O)C2(C(=O)Nc3ccc(Oc4ccnc5cc(-c6cn(C)cn6)sc45)c(F)c3)CC2)cc1`: the pIC50 in assay [1] was 5.30 to 6.00; in assay [2], 5.30 to 6.00; in assay [3], above 7.30; in assay [4], 6.60 to 7.30.
Turning to `CN1CCN(Cc2ccc(-c3cc4nccc(Oc5ccc(NC(=O)CC(=O)Nc6ccccc6)cc5F)c4s3)cc2)CC1`, the pIC50 was 5.30 to 6.00 in assay [1], above 6.00 in assay [2], above 7.30 in assay [3] and above 7.30 in assay [4].
For the compound `CCn1cnc(-c2cc3nccc(Oc4ccc(NC(=O)CC(Nc5ccc(F)cc5)C(F)(F)F)cc4F)c3s2)c1` (stereo not drawn), the negative logarithm of the IC50 (pIC50) in assay [1] was below 5.00; in assay [2] it was 5.30 to 6.00; in assay [3], 6.60 to 7.30; in assay [4], 6.30 to 6.60.
